These results are taken from patent US20060039974A1, “Sustained release preparation” (TAKEDA PHARMACEUTICAL COMPANY LIMITED, priority 2002, published 2006).

This series is described as follows: Dissolution test, Paddle Method, CTAB-containing The Japanese Pharmacopoeia 2nd fluid. The series is classed as physicochemical. The settings on record: after 10 min; control group; 0.1% CTAB-containing JP 2nd fluid 500 mL, 100 rpm. The protocol: To be specific, the tablets obtained in Examples 1-3 were subjected to a dissolution test (Paddle Method, 0.1% cetyltrimethylammoniumbromide (CTAB)-containing The Japanese Pharmacopoeia Degradation Test2nd fluid (hereinafter to be abbreviated as CTAB-containing The Japanese Pharmacopoeia Degradation Test 2nd fluid) 500 mL, number of rotation 100 rpm). In addition, as a control group, the powder of compound A was subjected to a similar dissolution test and found to show a dissolution rate of 99% after 10 min.
To be specific, a dissolution test of the tablet obtained in Example 13 was performed in the same manner as in Experimental Example 1. In addition, as a control group, the tablet of Reference Example 1 was subjected to a similar dissolution test and found to show a dissolution rate of 100% after 10 min.
To be specific, each tablet obtained in Examples 7 and 21 was subjected to a dissolution test (Paddle Method, The Japanese Pharmacopoeia Degradation Test 1st fluid (hereinafter to be abbreviated as The Japanese Pharmacopoeia 1st fluid) 500 mL, number of rotation 100 rpm). In addition, in the same manner as above except that the eluent was a CTAB-containing The Japanese Pharmacopoeia 2nd fluid, a dissolution test of the tablets obtained in Examples 7 and 21 was performed. The results are shown in Table 4 and Table 5, respectively.

As for `CC(C)Cn1c(CN)c(-c2ccccc2)c2cc(C(N)=O)ccc2c1=O` [Compound A, 3-(aminomethyl)-2-isobutyl-1-oxo-4-phenyl-1,2-dihydroisoquinoline-6-carboxamide], the dissolution rate was 99%.
